What was measured:
plasma cytokines = assay: Plasma cytokine measurements (LEGENDplex); assay type: in vivo, human; details: d28 vs baseline, 1000 mg/day oral
Procedure: Inflammatory cytokines were measured using LEGENDplex™ HU Essential Immune Response Panel (BioLegend) according to the manufacturer's instructions. Plasma samples were diluted 1:1 in assay diluent as recommended and technical duplicates were used for both the standard curve and experimental samples. Analysis was performed with the provided software.

PBMCs = assay: Spectral flow cytometry immune phenotyping of PBMCs; assay type: in vivo, human
Procedure: Spectral flow cytometry to broadly analyse immune composition was performed on PBMCs from 25 UA and 25 placebo individuals from the cohort. Flow cytometry staining was performed in three batches, to minimize batch-related effects.
PBMC were thawed and allowed to recover for 3 hours in uncoated cell culture dishes. All samples for any particular donor series were thawed together. For the intracellular panel, cells were stained after recovery with the surface panel, then fixed and permeabilized using the ThermoFisher Foxp3 fix/perm system, followed by staining for intracellular markers. For the surface-only panel, cells were treated with Bafilomycin A1 (0.5 μM) for 45 minutes, followed by 45 minutes incubation with 5-dodecanoylaminofluorescein di-β-D-galactopyranoside (C12FDG) before harvest and surface staining. All cells were analyzed on a Cytek Aurora cytometer. FCS files were exported into FlowJo (BD) for further analysis.
Raw data for all 64 output channels were unmixed using library single-color reference controls for each marker. Spectral compensation for the resulting unmixed data was corrected by manually adjusting a 31×31 matrix of spectral overlaps. Once the data was properly compensated, each individual marker was checked for signal and specificity. The resulting data was then manually gated using a representative sample. The gates are then applied to the other samples in the batch, while spot-checking the gating of the other samples for consistency with the first sample gated.

[1] = Clinical trial adverse event reporting; details: Group A n = 25; 1000 mg/day oral, 28 days
[2] = 28 days, 1000 mg/day oral, vs placebo
[3] = d28, 1000 mg/day oral, between the two groups
[4] = d28, 1000 mg/day oral, not present after placebo

Compound: O=c1oc2cc(O)ccc2c2ccc(O)cc12 [Urolithin A]
- Plasma IFN-γ level (plasma cytokines): significantly lower
- Plasma IL-1β level (plasma cytokines): significantly lower
- Plasma IL-2 level (plasma cytokines): significantly lower
- Plasma IL-6 level (plasma cytokines): No difference
- Plasma IL-8 level (plasma cytokines): No difference
- Plasma IL-10 level (plasma cytokines): significantly lower
- Plasma TNF-α level (plasma cytokines): significantly lower
- Plasma interferon-gamma induced protein (IP-10) level (plasma cytokines): No difference
- Plasma monocyte chemoattractant protein-1 (MCP-1) level (plasma cytokines): No difference
- CD8+ TEMRA (PBMCs; 28 days, 1000 mg/day oral): remained unaffected
- CD8+ central memory cells (TCM) (PBMCs; 28 days, 1000 mg/day oral): remained unaffected
- CD8+ virtual memory cells (TVM) (PBMCs; 28 days, 1000 mg/day oral): remained unaffected
- CD8+ TSCM (PBMCs; 28 days, 1000 mg/day oral, UA vs placebo group): no differences
- Proportion of naïve CD8+ T cells (TN) among total PBMCs (PBMCs; 28 days, 1000 mg/day oral, compared to placebo): increased
- CD8+ effector memory cells (TEM) (PBMCs; [2]): concomitantly reduced
- Percentage of CD4+ T cells among total PBMCs (PBMCs; [2]): no differences
- Percentage of CD8+ T cells among total PBMCs (PBMCs; [2]): no differences
- Percentage of circulating γδ T cells among total PBMCs (PBMCs; [2]): no differences
- Percentage of total αβCD3+ T cells among total PBMCs (PBMCs; [2]): no differences
- Nonclassical monocytes (CD14loCD16hi) among total PBMCs (PBMCs; after 28 days, 1000 mg/day oral, compared to placebo): increased
- Ki67 in CD8+ cells (PBMCs; after last study visit (d28), 1000 mg/day oral, not present after placebo): more
- CD4+ TCM population (PBMCs; d28, 1000 mg/day oral): no difference
- CD4+ TEM population (PBMCs; d28, 1000 mg/day oral): no difference
- CD4+ TN population (PBMCs; d28, 1000 mg/day oral): no difference
- CD4+ TSCM population (PBMCs; d28, 1000 mg/day oral): no difference
- CD4+ Th1 cells (T-bet) (PBMCs; d28, 1000 mg/day oral): no changes
- CD56dimCD16bright NK cells among total PBMCs (PBMCs; d28, 1000 mg/day oral): markedly expanded
- Circulating DCs (PBMCs; d28, 1000 mg/day oral): did not change
- Circulating ILCs (PBMCs; d28, 1000 mg/day oral): did not change
- Circulating T follicular helper cells (Tfh1, Bcl-6) (PBMCs; d28, 1000 mg/day oral): no changes
- FoxP3+ Treg (PBMCs; d28, 1000 mg/day oral): no changes
- Gata3+ Th2 cells (PBMCs; d28, 1000 mg/day oral): no changes
- NK cell inhibitory receptor KIR expression (PBMCs; d28, 1000 mg/day oral): No change
- NK cell inhibitory receptor KLRG1 expression (PBMCs; d28, 1000 mg/day oral): No change
- NK cell inhibitory receptor NKG2A expression (PBMCs; d28, 1000 mg/day oral): No change
- PD-1 expression in CD8+ cells (PBMCs; d28, 1000 mg/day oral): unaltered
- Senescence marker p16 (PBMCs; d28, 1000 mg/day oral): no difference
- Senescence marker p21 (PBMCs; d28, 1000 mg/day oral): no difference
- Classical monocytes (PBMCs; [3]): did not undergo change
- Intermediate monocytes (CD14hiCD16hi) (PBMCs; [3]): did not undergo change
- Percentage of plasma cells among PBMCs (PBMCs; [3]): no changes
- Percentage of plasmablasts among PBMCs (PBMCs; [3]): no changes
- Percentage of total B cells among PBMCs (PBMCs; [3]): no changes
- Specific B cell subsets (PBMCs; [3]): no changes
- Senescence-associated β-galactosidase (SA-β-GAL) in circulating CD8+ cells (PBMCs; [4]): increased
- TOX expression in CD8+ cells (PBMCs; [4]): small reduction
- HLA-DR on classical monocytes (PBMCs; final study visit (d28), 1000 mg/day oral): less
- Post-emergent AEs: Infections and Infestations, Covid-19 [1]: 1 (4%) n (%)
